Entries after “also recorded” stand apart in the source; their conditions may differ. Like-named read-outs stand apart in the source and are kept apart here.
Experiments:
human sling fibers [1] = test: nicotine or choline induced relaxation of bethanechol pre-contracted muscle strips; format: cell-based
human clasp fibers [2] = test: carbachol induced contraction and relaxation of muscle strips, with potential inhibitors of relaxation; format: cell-based; details: for inhibition of carbachol induced relaxation: mecamylamine 10 μM, hexamethonium 100 μM, L-NAME 50 μM
human LEC fibers [3] = test: as above; format: cell-based; details: for inhibition of carbachol induced relaxation: mecamylamine 10 μM, hexamethonium 100 μM, L-NAME 50 μM
pig clasp fibers = format: cell-based
[4] = test system: gastroesophageal junction high-pressure zone; details: in vivo; cited from earlier work
[5] = test system: gastroesophageal junction high-pressure zone; parameters: species or system human; details: in vivo, iv
human MEL fibers [6] = test: bethanechol induced contraction of muscle strips, with or without antagonist (Schild analysis); format: cell-based
human sling fibers [7] = test: as above; format: cell-based
human clasp fibers [8] = test: as above; format: cell-based
M3 receptor = M3 receptor (Homo sapiens, UniProt P20309); details: cited from earlier work
human LEC fibers [9] = test: bethanechol induced contraction of muscle strips, with or without antagonist (Schild analysis); format: cell-based
human MEC fibers [10] = test: as above; format: cell-based
M2 receptor = target: T1, M2 receptor (Homo sapiens, UniProt P08172); details: published value; cited from earlier work
T1 sequence (P08172 1-466): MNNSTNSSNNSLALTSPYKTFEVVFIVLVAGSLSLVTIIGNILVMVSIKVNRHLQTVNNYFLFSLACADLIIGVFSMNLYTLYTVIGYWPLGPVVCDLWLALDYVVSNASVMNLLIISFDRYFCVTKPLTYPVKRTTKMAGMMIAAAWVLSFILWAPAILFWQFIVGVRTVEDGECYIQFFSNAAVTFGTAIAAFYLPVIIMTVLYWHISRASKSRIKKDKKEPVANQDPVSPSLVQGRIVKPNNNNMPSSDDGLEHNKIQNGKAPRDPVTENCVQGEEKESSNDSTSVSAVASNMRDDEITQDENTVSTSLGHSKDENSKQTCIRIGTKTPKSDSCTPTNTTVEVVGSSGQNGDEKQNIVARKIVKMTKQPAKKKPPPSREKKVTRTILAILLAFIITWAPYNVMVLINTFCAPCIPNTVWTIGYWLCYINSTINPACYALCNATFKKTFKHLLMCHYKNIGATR

human sling fibers [11] = test: carbachol induced contraction and relaxation of muscle strips, with potential inhibitors of relaxation; format: cell-based; details: for inhibition of carbachol induced relaxation: mecamylamine 10 μM, hexamethonium 100 μM
human MEL fibers [12] = test: carbachol cumulative concentration response of muscle strips; format: cell-based
Description: (§1) Beginning at the cardiac notch, the sling fiber complex was separated from the underlying submucosa by sharp dissection and this tissue plane was followed completely around the lesser curvature thus separating the clasp fibers from underlying submucosa. The clasp fiber complex was removed from the sling fiber complex by sharp dissection and cut into 10-12 smooth muscle strips approximately 3×3×8 mm with the long axis parallel to the direction of the muscle fibers. Similar muscle strips were cut from the middle of the sling fiber complex such that these strips were derived from the sling fibers in the cardiac notch. These smooth muscle strips were suspended in 10 ml muscle baths between platinum electrodes in Tyrode's solution continuously bubbled with 95% O2/5% CO2 and maintained at 37° C. The muscle strips were stretched to approximately 150% of their slack length which produced approximately 1 gram of basal tension and were then allowed to accommodate to the muscle bath for at least 60 minutes prior to investigation of contractile response.
(§2) Representative traces of the contractile response to 120 mM KCl in isotonic Tyrode's solution followed by a wash and 60 minute re-equilibration period then a cumulative concentration response curve to the selective muscarinic receptor agonist bethanechol (left) or the muscarinic and nicotinic agonist carbachol (right) is shown in FIG. 11. […]

human MEC fibers [13] = test: as above; format: cell-based
Description: as §1, §2

human LEC fibers [14] = test: nicotine or choline induced relaxation of bethanechol pre-contracted muscle strips; format: cell-based
human clasp fibers [15] = test: as above; format: cell-based
[16] = inhibitor 30 min, then carbachol rechallenge, others as in Table 6
[17] = mean ± SEM, read-out: BETH pEC50 (bethanechol potency) (converted)
[18] = cumulative concentration response
[19] = Barrett's esophagitis donors vs no GERD history

Sequence of M3 receptor (P20309 whole entry): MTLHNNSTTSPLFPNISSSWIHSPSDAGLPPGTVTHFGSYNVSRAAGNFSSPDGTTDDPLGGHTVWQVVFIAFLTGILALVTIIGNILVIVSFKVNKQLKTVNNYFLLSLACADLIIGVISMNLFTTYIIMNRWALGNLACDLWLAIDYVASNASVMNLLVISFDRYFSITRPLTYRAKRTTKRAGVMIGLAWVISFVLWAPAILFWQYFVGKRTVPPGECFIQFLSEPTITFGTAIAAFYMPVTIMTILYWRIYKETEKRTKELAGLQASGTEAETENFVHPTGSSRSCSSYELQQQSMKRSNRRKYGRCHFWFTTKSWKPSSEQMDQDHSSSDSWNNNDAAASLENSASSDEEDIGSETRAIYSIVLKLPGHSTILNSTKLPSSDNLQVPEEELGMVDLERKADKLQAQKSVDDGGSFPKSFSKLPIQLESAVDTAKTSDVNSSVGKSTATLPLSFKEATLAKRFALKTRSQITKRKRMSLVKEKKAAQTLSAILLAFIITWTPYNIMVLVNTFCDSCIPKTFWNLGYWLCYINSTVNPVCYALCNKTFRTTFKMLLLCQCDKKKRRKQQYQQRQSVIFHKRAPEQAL

Compound: COC(=O)[C@@H](N)CCCNC(=N)N[N+](=O)[O-] [L-NAME]
- inhibition of nicotine induced relaxation (human sling fibers [1]): inhibited
- inhibition of carbachol induced relaxation (human clasp fibers [2]; […], others as in Table 6): inhibited
- inhibition of carbachol induced relaxation (human LEC fibers [3]; […]): inhibited

Compound: CC[N+](CC)(CC)CCOc1ccc(/C=C/c2ccccc2)cc1 [MG624]
- inhibition of carbachol induced relaxation (human clasp fibers [2]; [16]): blocked

Compound: CCCCCCCCCC[n+]1cccc([C@@H]2CCCN2C)c1.[I-] [NDNI]
- inhibition of carbachol induced relaxation (human clasp fibers [2]; […], others as in Table 6): blocked

Compound: CC(=O)OCC[N+](C)(C)C [acetylcholine]
- concentration above which abrupt relaxations were produced (pig clasp fibers; acetylcholine with physostigmine to block cholinesterase): higher than 30 uM

Compound: CN1[C@@H]2CC[C@H]1C[C@@H](OC(=O)C(CO)c1ccccc1)C2 (stereo partly drawn) [atropine]
- effect on the resting sphincteric pressure [4]: dose-dependent partial suppression
- effect on the pressure profile generated by placement of the plications [5]: abolished

Compound: CC(C[N+](C)(C)C)OC(N)=O (stereo not drawn) [bethanechol]
- BETH MAX (maximal tension) (human MEL fibers [6]; mean ± SEM): 1.37 ± 0.21 (n = 10)
- EC50 (human MEL fibers [6]; [17]): 15.8 µM
- BETH MAX (maximal tension) (human sling fibers [7]; mean ± SEM): 2.18 ± 0.24 (n = 37) c d e
- EC50 (human sling fibers [7]; [17]): 10.5 µM
- BETH MAX (maximal tension) (human clasp fibers [8]; mean ± SEM): 1.20 ± 0.17 (n = 14) b d
- EC50 (human clasp fibers [8]; [17]): 1.58 µM
- KA (agonist dissociation constant) for M3 (M3 receptor; published value): 110 µM
- BETH MAX (maximal tension) (human LEC fibers [9]; mean ± SEM): 0.92 ± 0.09 (n = 29)
- EC50 (human LEC fibers [9]; [17]): 6.46 µM
- BETH MAX (maximal tension) (human MEC fibers [10]; mean ± SEM): 0.79 ± 0.07 (n = 24) e
- EC50 (human MEC fibers [10]; [17]): 45.7 µM
- KA (agonist dissociation constant) for M2 (M2 receptor): 170 µM

Compound: C[N+](C)(C)CCOC(N)=O [carbachol]
- carbachol induced relaxation, GERD compared to non-GERD controls (human sling fibers [11]): no difference
- carbachol induced relaxations, definite GERD (human sling fibers [11]; carbachol higher than 100 μM): greater
- carbachol concentration at which relaxation response is observed (human sling fibers [11]; [18]): ≥ 300 µM
- relaxation response to high carbachol concentration as a percentage of the maximal contractile response (human sling fibers [11]; mean±sem): 29±4%
- maximal carbachol induced contraction, donors with GERD compared to donors without GERD (human sling fibers [11]; p<0.05): greater
- contractility to carbachol, definite and probable GERD (human sling fibers [11]; vs no GERD history): increased
- maximal contractile response to carbachol, definite GERD (human clasp fibers [2]; [19]): decreased
- carbachol induced relaxations, probable and definite GERD (human clasp fibers [2]; carbachol higher than 100 μM): decreased
- concentration above which abrupt relaxations were produced (human clasp fibers [2]; increasing carbachol concentrations (Example 9)): higher than 30 uM
- relaxation response to high carbachol concentration as a percentage of the maximal contractile response (human clasp fibers [2]; mean±sem): 131±6%
- carbachol-induced relaxations with high concentrations of carbachol, donors with GERD compared to non-GERD controls (human clasp fibers [2]; p<0.05): significantly lower
- maximal carbachol induced contraction, donors with GERD compared to non-GERD donors (human clasp fibers [2]; p<0.05): significantly lower
- maximal contractile response to carbachol, definite GERD (human LEC fibers [3]; [19]): decreased
- carbachol induced relaxations, probable and definite GERD (human LEC fibers [3]; carbachol higher than 100 μM): higher
- carbachol concentration at which relaxation response is observed (human LEC fibers [3]; [18]): ≥ 300 µM
- relaxation response to high carbachol concentration as a percentage of the maximal contractile response (human LEC fibers [3]; mean±sem): 54±9%
- abrupt relaxation response to high carbachol concentrations (human MEL fibers [12]): not observed
- abrupt relaxation response to high carbachol concentrations (human MEC fibers [13]): not observed

Compound: C[N+](C)(C)CCCCCCCCCC[N+](C)(C)C [decamethonium]
- inhibition of carbachol induced relaxation (human sling fibers [11]; […], others as in Table 6): inhibit
- inhibition of carbachol induced relaxation (human clasp fibers [2]; […], others as in Table 6): inhibited

Compound: C[N+](C)(C)CCCCCC[N+](C)(C)C [hexamethonium]
- inhibition of carbachol induced relaxation (human sling fibers [11]; […], others as in Table 6): did not
- inhibition of carbachol induced relaxation (human sling fibers [11]; […], others as in Table 6, listed as HEX): inhibit
- inhibition of carbachol induced relaxation (human LEC fibers [3]; […]): did not

Compound: CNC1(C)C2CCC(C2)C1(C)C (stereo not drawn) [mecamylamine]
- inhibition of carbachol induced relaxation (human sling fibers [11]; [16]): inhibited
- inhibition of carbachol induced relaxation (human sling fibers [11]; inhibitor 30 min, then carbachol rechallenge, others as in Table 6, listed as MEC): inhibit
- inhibition of nicotine induced relaxation (human LEC fibers [14]; human LEC fibers, 30 μM bethanechol then 1 mM nicotine, MLA 10 nM, MECA 10 μM): significantly inhibited
- inhibition of nicotine induced relaxation (human clasp fibers [15]; human clasp fibers, 30 μM bethanechol then 1 mM nicotine, MLA 10 nM, MECA 10 μM): significantly inhibited
- inhibition of nicotine induced relaxation (human sling fibers [1]; human sling fibers, 30 μM bethanechol then 1 mM nicotine, MLA 10 nM, MECA 10 μM): significantly inhibited
- inhibition of carbachol induced relaxation (human clasp fibers [2]; [16]): inhibited; also recorded: blocked; also recorded: only partially effective
- inhibition of carbachol induced relaxation (human LEC fibers [3]; inhibitor 30 min, then carbachol rechallenge): inhibited

Compound: COc1ccccc1CNCCCCCCNCCCCCCCCNCCCCCCNCc1ccccc1OC [methoctramine]
- potency (pA2) to inhibit bethanechol induced contraction (human MEL fibers [6]): 5.6±0.3
- potency (pA2) to inhibit bethanechol induced contraction (human sling fibers [7]): 6.8±0.2
- potency (pA2) to inhibit bethanechol induced contraction (human clasp fibers [8]): 6.3±0.2
- pKB M3 (M3 receptor; published affinity value): 6.6
- potency (pA2) to inhibit bethanechol induced contraction (human LEC fibers [9]): 6.2±0.2
- potency (pA2) to inhibit bethanechol induced contraction (human MEC fibers [10]): 5.7±0.2

Compound: CCN1C[C@]2(COC(=O)c3ccccc3N3C(=O)C[C@H](C)C3=O)CC[C@H](OC)[C@@]34[C@@H]5C[C@H]6[C@H](OC)[C@@H]5[C@](O)(C[C@@H]6OC)[C@@](O)([C@@H](OC)[C@H]23)[C@@H]14 [methyllycaconitine]
- inhibition of nicotine induced relaxation (human LEC fibers [14]): no inhibitory effect
- inhibition of nicotine induced relaxation (human clasp fibers [15]): no inhibitory effect
- inhibition of nicotine induced relaxation (human sling fibers [1]): no inhibitory effect
- inhibition of carbachol induced relaxation (human clasp fibers [2]; […], others as in Table 6): did not
- inhibition of carbachol induced relaxation (human clasp fibers [2]; […], others as in Table 6, listed as methyllycaconotine): ineffective

Compound: CN1CCCC1c1cccnc1 (stereo not drawn) [nicotine]
- nicotine induced relaxation of bethanechol pre-contracted fibers (human LEC fibers [14]; human LEC fibers): relax
- nicotine induced relaxation of bethanechol pre-contracted fibers (human clasp fibers [15]; human clasp fibers): relax
- nicotine induced relaxation of bethanechol pre-contracted fibers (human sling fibers [1]; human sling fibers, 30 μM bethanechol, 100 μM nicotine): relax; also recorded: induces a relaxation

Compound: CC(=O)O[C@H]1C[C@@H]2CC[C@@H]3[C@H](CC[C@@]4(C)[C@H]3C[C@H]([N+]3(C)CCCCC3)[C@@H]4OC(C)=O)[C@@]2(C)C[C@@H]1[N+]1(C)CCCCC1 [pancuronium]
- inhibition of cholinergic agonist induced relaxation (pig clasp fibers; […], 1E−5 molar): inhibited

Compound: CC(C)NCC(O)COc1cccc2ccccc12 (stereo not drawn) [propranolol]
- inhibition of nicotine induced relaxation (human sling fibers [1]; human sling fibers, 30 μM bethanechol then 100 μM nicotine, inhibitor 30 min): inhibited

Compound: NC1=N[C@H](O)[C@H]2[C@H]3O[C@]4(O)O[C@@H]([C@@H](O)[C@@]2(N1)[C@@H]4O)[C@]3(O)CO [tetrodotoxin]
- inhibition of nicotine induced relaxation (human sling fibers [1]): reduced the relaxation but not completely

Compound: COc1cc2c3cc1Oc1cc(ccc1O)C[C@@H]1c4c(cc(OC)c(O)c4Oc4ccc(cc4)C[C@@H]3N(C)CC2)CC[N+]1(C)C [tubocurarine]
- inhibition of carbachol induced relaxation (human sling fibers [11]; […], others as in Table 6): inhibit
- inhibition of carbachol induced relaxation (human clasp fibers [2]; […], others as in Table 6): inhibited
